The values below come from PMC9310948 (Chemcatchem, 2022).

The test addresses H. orenii β-glucosidase (GH1) (Halothermothrix orenii, UniProt B8CYA8). The test can be described thus: p-nitrophenol release, absorbance […] nm. It counts as biochemical. The conditions noted are these: 50 mM HEPES pH 7.4, 10 mM substrate.

Chain of H. orenii β-glucosidase (GH1) (B8CYA8 1-451): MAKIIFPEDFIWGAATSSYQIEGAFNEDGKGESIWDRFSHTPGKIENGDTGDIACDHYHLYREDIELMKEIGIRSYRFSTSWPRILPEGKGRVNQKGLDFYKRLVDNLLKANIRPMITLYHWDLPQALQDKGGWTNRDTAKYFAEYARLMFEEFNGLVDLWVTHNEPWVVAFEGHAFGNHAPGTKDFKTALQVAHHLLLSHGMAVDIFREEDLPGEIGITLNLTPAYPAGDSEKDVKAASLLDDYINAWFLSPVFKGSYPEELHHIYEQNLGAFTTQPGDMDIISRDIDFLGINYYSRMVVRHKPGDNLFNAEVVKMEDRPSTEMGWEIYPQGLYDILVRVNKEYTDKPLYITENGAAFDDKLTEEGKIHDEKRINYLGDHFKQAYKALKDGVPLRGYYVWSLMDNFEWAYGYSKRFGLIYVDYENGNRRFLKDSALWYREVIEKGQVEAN

Take `O=[N+]([O-])c1ccc(O[C@@H]2O[C@H](CO)[C@@H](O)[C@H](O)[C@H]2O)cc1` [p-nitrophenyl glucoside]: the “p-nitrophenol release, absorbance 420 nm” value is “monitoring the enzymatic rate of hydrolysis of p‐nitrophenyl glucoside by a UV‐Vis assay”.
